Laboratory results: article PMC9267955, “Antidiabetic, Antiglycation, and Antioxidant Activities of Ethanolic Seed Extract of Passiflora edulis and Piceatannol In Vitro” (Molecules, 2022)
Marks after values point to notes of the source that are not given here.

Experiments:
[1] = MGO capture using derivatization with OPD (HPLC); conditions: PESE 2 mg/mL, PIC 2 mM, AMG 2 mM; MGO 2 mM; 37 °C, 1 h
Description: MGO scavenging was tested using a described procedure, with slight modifications. The quantification of MGO was based on derivatization with OPD, leading to the formation of the product 2-methylquinoxyline (2-MQ). MGO and OPD were dissolved in phosphate buffer (50 mM, pH 7.4) to a concentration of 2 mM and 4 mM, respectively. […] The reaction system was composed of 125 μL of the MGO solution, 125 μL of phosphate buffer (negative control), or PESE incubated at 37 °C for 1 h. After 250 μL of the OPD solution was added, the tubes were kept for 30 min for the derivatization reaction between MGO and OPD to complete. Then, the chromatographic analysis was performed. All solutions were previously filtered (microfilter pore diameter 0.45 μm). […] The linear gradient for elution was: starting at 5% of solvent B, 0–3 min, 5 to 50% B; 3–16 min, isocratic in 50% B; 16–17 min, 50–90% B; 17–19 min, isocratic in 90% B and 19–19.5 min, 90–5% B. The derivatization product, 2-methylquinoxyline (2-MQ), was detected at 315 nm, with a retention time of 10 min. The percentage of trapping efficiency of MGO was calculated using the following equation: % trapping MGO = [100 − (peak area after adding sample/peak area without adding sample) × 100].

BSA/MGO fluorescent AGEs = assay: Inhibition of AGE formation, intermediate stage of glycation (BSA/MGO); type: biochemical, bovine; conditions: BSA/MGO model
Description: (§1) The BSA-MGO assay was based on those described before, with some modifications. This experiment is based on the formation of fluorescent AGEs from the middle stage of protein glycation. MGO (1.5 mM) and BSA (3 mg/mL) were dissolved separately in 0.05 M phosphate buffer (pH 7.4) containing NaCl (100 mM) and NaN3 (0.02% w/v). Then, 300 μL of MGO was incubated with samples at different concentrations (dissolved in a buffer containing 60% ethanol) for an hour at 37 °C, in the dark, with constant stirring. After BSA (3 mg/mL) was added to the reaction mixture and incubation time was extended to 48 h at 37 °C in darkness. The rest of the procedure was the same as that for the BSA-glucose/fructose model that is described above. The percentage of the AGE inhibition and IC50 was calculated as described in Section 3.3.1.

[2] = test system: BSA/fructose + glucose fluorescent AGEs; assay: Inhibition of AGE formation, initial stage of glycation (BSA/fructose + glucose); type: biochemical, bovine; conditions: BSA/fructose + glucose model, 7 days, 37 °C
Description: The formation of AGEs was measured after incubation of a system containing protein and carbohydrates. This assay was based on previous methods. The reaction system was obtained by adding 300 µL of plant extract or of the pure compound (at different concentrations), 150 µL D-fructose (200 mM), 150 µL of D-glucose (200 mM), and 300 µL of bovine serum albumin (BSA, 3 mg/mL) to a test tube. All these solutions, except plant extract, were dissolved in 0.05 M potassium phosphate buffer (pH 7.4) containing NaCl (100 mM) and NaN3 (0.02% w/v). The plant extract was prepared in a buffer containing 60% ethanol. The mixture was incubated in the dark at 37 °C for 7 days with constant stirring. After the incubation, 200 µL of the reaction mixture was transferred to a 96-well black plate, and fluorescent AGEs were measured using a microplate reader (Infinite® 200 PRO, TECAN, Männedorf, Switzerland) at λex = 360 and λem = 440 nm. […]. Aminoguanidine (AMG), a known AGE formation inhibitor, was used as a standard. The reaction mixture without inhibitors was used as a positive control. Color interference from the sample was eliminated by a sample control (buffer and sample). The fluorescence readings for the experimental treatment were blanked against extract blanks to eliminate the baseline fluorescence of the sample. The percentage of the AGE inhibition and IC50 was calculated as described in Section 3.3.1.

[3] = test system: amyloid fibrils of glycated BSA (BSA/MGO); assay: Inhibition of amyloid fibril formation, ThT assay (BSA/MGO); type: biochemical, bovine; conditions: highest obtained, PESE 200, PIC 200, AMG 100 µg/mL
Description: as §1
The fibrillar state of modified BSA was determined with ThT as previously described. ThT is a probe that binds directly to amyloid fibrils to give a strong fluorescent signal and thus can be used to quantify β-amyloid due to protein glycation. Basically, 30 μL of glycated protein (approx. 1 mg/mL), obtained as described previously, was mixed with 100 μL ThT reagent (10 μM ThT in 100 mM phosphate buffer, pH 7.0), and fluorescence was collected at excitation/emission wavelengths of 450/490 nm in a microplate reader (Infinite® 200 PRO, TECAN, Männedorf, Switzerland). […]

[4] = Superoxide anion radical scavenging activity
Description: The potential of the samples to scavenger superoxide anion radicals was determined, with minor modifications. […] Phosphate buffer (19 mM, pH 7.4) was used to dissolve NADH, NBT, and PMS. QCT was used as means of comparison. The experiment was conducted at 37 °C in a microplate reader (Infinite® 200 PRO, TECAN, Männedorf, Switzerland), and the absorbance was measured at 560 nm. The results were expressed as IC50 of extract solution in μg/mL.

[5] = set-up: method as in PMID 31683151; conditions: compound 5 mM, MGO 5 mM; cited from earlier work
[6] = DPPH radical scavenging assay
Description: After incubation in the dark for 30 min, the absorbance was read at 516 nm, using a UV–Vis spectrophotometer (Agilent Technologies, Santa Clara, CA, USA). Results were expressed as the half-maximal inhibitory concentration (IC50) in μg/mL.

Description for HOCl scavenging activity: Briefly, a freshly prepared HOCl solution, by adjusting the pH of a 1% solution of NaOCl to 6.2 with dropwise addition of diluted H2SO4, was diluted to 30 µM, using 100 mM phosphate buffer pH 7.4. […] QCT was used as means of comparison. Fluorescence assays were performed in a microplate reader (Infinite® 200 PRO, TECAN, Männedorf, Switzerland), at 37 °C, at wavelengths of 505 ± 10 nm and 530 ± 10 nm, for excitation and emission, respectively. The results were expressed as IC50 (μg/mL) of extract solution.

Compound	MGO capture percentage [5]	also measured
N=C(N)NN [AMG, Aminoguanidine]		MGO trapping [1]: 99.6%; Antiglycation IC50, MGO (BSA/MGO fluorescent AGEs): 50.4 ± 1.8 ^c μg/mL; Antiglycation IC50, Fructose + Glucose [2]: 25.5 ± 5.0 ^c μg/mL; Inhibition of Amyloid Fibrils (%), MGO [3]: 30.3 ± 4.4 ^c %
O=c1c(O)c(-c2ccc(O)c(O)c2)oc2cc(O)cc(O)c12 [QCT, quercetin]	21.4%	O2•− IC50 [4]: 8.8 ± 0.3 µg/mL; IC50 ([4]; data in parenthesis are in μM, read-out: O2•− IC50 (in parenthesis) (converted)): 29.2 µM; HOCl IC50 (HOCl scavenging activity): 1.9 ± 0.3 µg/mL; DPPH• IC50 ([6]; 30 min): 4.8 ± 1.0 µg/mL; IC50 ([6]; data in parenthesis are in μM): 15.9 µM
O=c1cc(-c2ccc(O)cc2)oc2cc(O)cc(O)c12 [apigenin]	36.5%	
COc1cc(-c2cc(=O)c3c(O)cc(O)cc3o2)ccc1O [chrysoeriol]	41.8%	
O=c1c(-c2ccc(O)cc2)coc2cc(O)cc(O)c12 [genistein]	43.4%	
O=c1c(O)c(-c2ccc(O)cc2)oc2cc(O)cc(O)c12 [kaempferol]	58.9%	
O=c1cc(-c2ccc(O)c(O)c2)oc2cc(O)cc(O)c12 [luteolin]	40.7%	
CC1OC(OCC2OC(Oc3c(-c4ccc(O)cc4)oc4cc(OC5OC(C)C(O)C(O)C5O)cc(O)c4c3=O)C(O)C(O)C2O)C(O)C(O)C1O (stereo not drawn) [robinin]	54.4%	
C[C@@H]1O[C@@H](OC[C@H]2O[C@@H](Oc3c(-c4ccc(O)c(O)c4)oc4cc(O)cc(O)c4c3=O)[C@H](O)[C@@H](O)[C@@H]2O)[C@H](O)[C@H](O)[C@H]1O [rutin]	49.3%	
procyanidins	46.3%	
